Experiments:
[1] = Bioavailability / brain exposure in CD1 mice; format: in vivo; conditions: dose of 30 mg/kg
Description: The compounds have good properties for oral dosing and readily cross the blood brain barrier. For example, in CD1 mice, Compound 9 has a maximum concentration in brain plasma of 5067 ng/ml after 30 minutes at a dose of 30 mg/kg. Compound 12 has a maximum concentration in brain plasma of 5853 ng/ml after 8 hours at a dose of 30 mg/kg.

[2] = test system: Human osteosarcoma U2OS cells; assay: Acidic vesicle formation (lysosome/autolysosome staining, LysoView 633 / LysoTracker Deep Red), stimulation of autophagy; format: cell-based; conditions: 24 hours; for activation at 0.8 µM: read-out: Activity (percentage increase in acidic vesicle formation over the DMSO-treated control); for activation at 10 µM: read-out: increase in acidic vesicle formation over the DMSO-treated control
Description: Lysosomes play a fundamental role in the autophagic pathway by fusing with autophagosomes and creating ‘autolysosomes’ in order to digest their contents. Stimulation of lysosome and autolysosome formation by a compound is indicative of a stimulation of autophagy. The ability of compounds to stimulate lysosome and autolysosome formation, and thus autophagy, in live cells was assessed via fluorescent microscopy using various fluorescent stains for labelling and tracking acidic organelles (including lysosomes and autolysosomes) such as: LysoView™ 650 (70059 and 70059-T, Biotium), LysoView™633 (70058 and 70058-T, Biotium) and LysoTracker™ Deep Red (L12492, ThermoFisher Scientific). The cellular phenotype was quantitatively assessed for the induction of acidic vesicle formation and compared to a non-treated control, thus providing a measure of the ability of the compound under investigation to stimulate autophagy.
Representative procedure using LysoView™633 dye or LysoTracker™ Deep Red dye: Human osteosarcoma U2OS cells (40,000 cells/well) were seeded in a 24 well glass bottom plate (Sensoplate, Greiner Bio-One) and were incubated overnight in a humidified atmosphere at 37° C. and 5% CO2. Cells were grown in DMEM (Gibco) supplemented with 10% Fetal Bovine Serum (FBS) and 100 units/ml penicillin and 100 μg/ml streptomycin (Invitrogen). After the attachment period, cells were treated with different compounds of interest (at various concentrations in DMSO) or DMSO (non-treated control) in cell culture medium and were incubated for 24 hours. Compound-containing medium was removed and cells were incubated with pre-warmed cell culture medium containing 1× LysoView™ 633 (70058 and 70058-T, Biotium) or 50 nM LysoTracker™ Deep Red (L12492, ThermoFisher Scientific) for 45 minutes at 37° C. Finally, cell nuclei were stained for 10 minutes using Hoechst 33342 (1 μg/mL) and then the medium was replaced with fresh medium. The 24 well plate was then fitted into a heated stage on the microscope and cells maintained at 37° C. Images were captured using appropriate filter set for Cy5 and DAPI detection with the EVOS M7000 Microscope (ThermoFisher Scientific). The cellular phenotype was visually assessed for the induction of acidic vesicle formation relative to the non-treated control; multiple images were acquired and analysed using ImageJ or Cell Profiler.

[3] = test system: C57BL/6JRj mice injured by intra-nigral injections of alpha-synuclein and CBE; assay: Mouse model of Parkinson's disease (intra-nigral alpha-synuclein protofibrils plus CBE); format: in vivo; conditions: 30 mg/kg per os on the first day, then 10 mg/kg per os once a day; for bar test: decrease in the mean time required to cross the bar compared to the α-syn/CBE injured group / bar test: reduction in the mean number of steps required to cross the bar compared to the α-syn/CBE injured group / bar test: reduction in the number of misplaced steps (failed strides) compared to the α-syn/CBE injured group: week 3; for decrease in the aggregation of α-syn in TH neurons (α-syn area) compared to the α-syn/CBE injured group / grid walking test: increase in the total distance travelled during the test / grid walking test: reduction in the mean number of failures per meter (number of missed steps) / increase in the number of dopaminergic TH positive neurons in the SNpc compared to the α-syn/CBE injured group: week 4
Source text: This model (run by Neuro-Sys SAS, France) uses C57BL/6JRj mice injured by intra-nigral injections of a solution containing protofibrils of alpha-synuclein (α-syn, precisely quantified by automatic Western Blot) and combined with pharmacological inhibition of GBA by conduritol B epoxide (CBE), in aged mice. The model mimics the main pathologies of PD: loss of dopaminergic neurons in the substantia nigra, neuroinflammation, deficits in motor coordination and synucleinopathy (α-syn aggregation). Any substance with positive effects in this model may be useful as a new therapeutic agent for the treatment or prevention of PD.
• Type of animal: C57BL/6JRj (Male) • Age: 18 months old • Supplier: Janvier Labs • Animal number: 10 mice per group • Acclimation and clinical signs: Animals arrived on site 7 days (one week) before the experiment to allow optimal acclimation.
Overview: CBE was administered along with the test compounds, starting on the day of the stereotaxic injections of the α-syn oligomer preparation.
Test compounds at specific concentrations (see below) were administered per os (gavage or drinking water). • Test compound treatment: The test compounds were solubilized (vehicle=water), aliquoted and stored at −20° C. Aliquots were thawed overnight at 4° C. and given once a day. Treatment started on the day of the stereotaxic injections of α-syn preparation (Day 0). Treatment was administrated until the last day of the experiment (Day 28; =day of dissection). • CBE dose and administration: 50 mg/kg, Intraperitoneal (i.p.), twice a day. • CBE treatment: Administration of CBE (vehicle=saline [NaCl 0.9%] started on the day of the stereotaxic injections of α-syn preparation (Day 0). Treatment was administrated until the last day of the experiment (Day 28; =day of dissection), • Untreated control: vehicle (saline; i.p.) administered twice a day, • Stereotaxic injections of α-syn oligomers: Human α-syn peptide (stock at 69 μM in water at −20° C.) was reconstituted at 50 μM in NaCl, 0.9% (final concentration). All mice in compound treated groups were subjected to surgery and received 2.5 μL of α-syn solution. Mice were anesthetized by isoflurane (4%, for induction), in an induction chamber coupled with a vaporizer and to an oxygen concentrator. Mice were placed on the stereotaxic frame. Anesthesia was maintained by isoflurane (2%) with a face mask coupled to the isoflurane vaporizer and oxygen concentrator machine. The skull was exposed and holes were drilled. The α-syn preparation was bilaterally injected into the SNpc, at the following coordinates: A-P, −0.3 mm; M-L, +0.12 mm; D-V, −0.45 mm. Depth of anesthesia and rectal temperature were verified every 5 minutes. After surgery, mice were allowed to recover before being placed back in the cage.
• i) Body mass • ii) Assessment of motor coordination: bar test and grid walking test • iii) Dopaminergic Tyrosine hydroxylase (TH)-positive neuron survival in the substantia nigra pars compacta (SNpc), i.e. a measure of the number of TH neurons in the SNpc • iv) α-syn area in TH positive neurons (a measure of the degree of aggregation of α-syn in TH positive neurons, in the SNpc)
• Overall: For overall evaluation and body mass, mice were observed daily, and body mass was monitored prior to drug administration. • Assessment of motor coordination: bar test.
In the third week (Week 3) post-surgery, motor coordination of the mice was assessed with the bar test. The principle of the test is based on the capacity of the mice to cross a horizontal bar connected to a platform (18 mm of diameter, 60 cm long). The test requires good coordination between front and hindlimbs, and good balance. Mice are placed at one extremity of the bar and need to reach a platform located at the other side of the bar. Motor coordination was studied after two training sessions, one and two days before the test. Three sessions were recorded by a video camera system. […]

Structure (SMILES)	maximum concentration in brain plasma [1] [ng/mL]	time of maximum concentration in brain plasma [1] [min]	activation at 0.8 µM [2] [%]	activation at 10 µM [2] [%]	bar test: decrease in the mean time required to cross the bar compared to the α-syn/CBE injured group [3] [%]	bar test: reduction in the mean number of steps required to cross the bar compared to the α-syn/CBE injured group [3] [%]	bar test: reduction in the number of misplaced steps (failed strides) compared to the α-syn/CBE injured group [3] [%]	decrease in the aggregation of α-syn in TH neurons (α-syn area) compared to the α-syn/CBE injured group [3] [%]	grid walking test: increase in the total distance travelled during the test [3] [%]	grid walking test: reduction in the mean number of failures per meter (number of missed steps) [3] [%]	increase in the number of dopaminergic TH positive neurons in the SNpc compared to the α-syn/CBE injured group [3] [%]
CCOc1ccc(Cl)cc1CN1CCN[C@@H](C)C1.Cl [Compound 9, (S)-1-(5-chloro-2-ethoxybenzyl)-3-methylpiperazine hydrochloride]	5067	30	10 to 30	≥ 25	–	–	–	–	–	–	–
CCOc1ccc(CN2CC[C@@H](CN)C2)cc1Cl.Cl [Compound 30, (S)-(1-(3-chloro-4-ethoxybenzyl)pyrrolidin-3-yl)methanamine hydrochloride]	–	–	> 100	≥ 25	25	7	19	30	36	28	57
CCOc1ccc(CN2CC[C@H](CN)C2)cc1Cl.Cl [Compound 23, (R)-(1-(3-chloro-4-ethoxybenzyl)pyrrolidin-3-yl) methanamine hydrochloride]	–	–	–	≥ 25	11	3	39	16	14	14	31

From patent US20260193180A1, “AUTOPHAGY INDUCING COMPOUNDS AND USES THEREOF” (SAMSARA THERAPEUTICS INC., priority 2022, published 2026)
